Assay [1] addresses T1, human CCR6 (Homo sapiens, UniProt P51684).
T1 sequence (P51684 1-374): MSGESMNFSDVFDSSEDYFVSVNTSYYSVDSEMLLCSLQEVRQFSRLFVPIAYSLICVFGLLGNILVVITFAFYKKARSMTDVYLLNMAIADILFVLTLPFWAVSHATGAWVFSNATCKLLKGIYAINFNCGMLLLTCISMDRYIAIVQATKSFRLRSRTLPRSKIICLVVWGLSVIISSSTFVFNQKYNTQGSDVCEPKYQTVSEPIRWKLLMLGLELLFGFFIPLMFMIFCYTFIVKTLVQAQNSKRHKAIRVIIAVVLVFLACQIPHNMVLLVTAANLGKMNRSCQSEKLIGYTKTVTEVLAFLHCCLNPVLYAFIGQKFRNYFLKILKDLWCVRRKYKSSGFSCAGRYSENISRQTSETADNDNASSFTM
The assay can be described thus: CHO-K1 CCR6 chemotaxis assay towards CCL20. The format is cell-based. The following applies: relative -Log IC50; CHO-K1 cells overexpressing human CCR6; migration towards 100 ng/ml CCL20; 4 h. Summed up: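 Human CCR6-overexpressing CHO-K1 cells (2*10^6 cells/ml) were preincubated 30 min at 37 °C with compound (0.2% DMSO), then allowed to migrate 4 h through 8 µm Transwell pores toward 100 ng/ml CCL20. Migrated cells were counted by CellTiter Glo. −Log IC50 came from four-parameter fits normalised to DMSO without/with CCL20.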

Assay [2] deals with T1, human CCR6. In words: Human CCR6-CRE reporter assay. Type of assay: cell-based. The arrangement: The second construct contained the open reading frame of human CCR6 in the pUNO1 backbone; host or cells: 293FT cells. As to conditions: relative -Log IC50; 293FT cells transfected with human CCR6 and CRE-luciferase reporter; 6 μM Forskolin, 6 nM CCL20; 5 h. Summed up:
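293FT cells transiently co-transfected with human CCR6 and a CRE-luc2P reporter, used 48 h later. Compounds incubated with cells in medium containing 6 μM Forskolin and 6 nM CCL20 (assay-medium levels), 0.1% DMSO final, 5 h at 37° C; luminescence read, relative −Log IC50 from four-parameter fit.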

The source of these data is US20260070902A1, “SULFONYL DERIVATIVES AS CCR6 INHIBITORS” (Hoffmann-La Roche Inc., priority 2022, published 2026).

In the case of `CNC(=O)c1ccc(-c2ccc(S(=N)(=O)N3CCC(Nc4ccc(S(F)(F)(F)(F)F)cc4)CC3)cc2)cn1` (centres unmarked) [Example 121, N-methyl-5-{4-[(4-{[4-(pentafluoro-λ^6-sulfanyl)phenyl]Amino}piperidin-1-yl)sulfonimidoyl]phenyl}pyridine-2-carboxamide], the half-inhibitory concentration (IC50) is 158 nM at human CCR6 [1] and 251 nM on human CCR6 [2].

Take `N=S(=O)(c1ccc(-c2ccc3c(c2)CC(=O)N3)cc1)N1CCC(Nc2ccc(S(F)(F)(F)(F)F)cc2)CC1` (centres unmarked) [Example 123, 5-{4-[(4-{[4-(pentafluoro-λ^6-sulfanyl)phenyl]Amino}piperidin-1-yl)sulfonimidoyl]phenyl}-2,3-dihydro-1H-indol-2-one]: the IC50 against human CCR6 [1] is 200 nM; against human CCR6 [2], 251 nM.

For the compound `N=S(=O)(c1ccc(-c2ccc3nccn3c2)cc1)N1CCC(Nc2ccc(S(F)(F)(F)(F)F)cc2)CC1` (centres unmarked) [Example 124, (4-{imidazo[1,2-a]pyridin-6-yl}phenyl)(4-{[4-(pentafluoro-λ^6-sulfanyl)phenyl]Amino}piperidin-1-yl)(imino)-λ^6-sulfanone], the IC50 was 126 nM against human CCR6 [1] and 200 nM at human CCR6 [2].

For `CNC(=O)c1cc(-c2ccc(S(=O)(=O)N3CCC(Nc4ccc(S(F)(F)(F)(F)F)cc4)CC3)cc2)ccc1F` [Example 138, 4-fluoro-N-methyl-4′-[(4-{[4-(pentafluoro-λ^6-sulfanyl)phenyl]amino}piperidin-1-yl)sulfonyl]-[1,1′-biphenyl]-3-carboxamide], the figures for the 50% inhibitory concentration (IC50) against human CCR6 [1] and against human CCR6 [2] were 20 nM and 63.1 nM, respectively.

Take `CNC(=O)c1ccc(-c2ccc(S(=O)(=O)N3CCC(Nc4ccc(S(F)(F)(F)(F)F)cc4)CC3)cc2)cc1F` [Example 139, 3-fluoro-N-methyl-4′-[(4-{[4-(pentafluoro-λ^6-sulfanyl)phenyl]amino}piperidin-1-yl)sulfonyl]-[1,1′-biphenyl]-4-carboxamide]: the figures for the IC50 against human CCR6 [1] and at human CCR6 [2] were 10 nM and 63.1 nM, respectively.

For the compound `Cc1n[nH]c2cnc(-c3ccc(S(=O)(=O)[C@H]4CC[C@H](Nc5ccc(S(F)(F)(F)(F)F)cc5)CC4)cc3)cc12` [Example 142, 4-(pentafluoro-λ^6-sulfanyl)-N-[trans-4-(4-{3-methyl-1H-pyrazolo[3,4-c]pyridin-5-yl}benzenesulfonyl)cyclohexyl]aniline], the IC50 at human CCR6 [1] is 25.1 nM; against human CCR6 [2], 251 nM.

Consider `O=S(=O)(c1ccc(-c2cc3cn[nH]c3cn2)cc1)[C@H]1CC[C@H](Nc2ccc(S(F)(F)(F)(F)F)cc2)CC1` [Example 147, 4-(pentafluoro-λ^6-sulfanyl)-N-[trans-4-(4-{1H-pyrazolo[3,4-c]pyridin-5-yl}benzenesulfonyl)cyclohexyl]aniline], for which the half-inhibitory concentration (IC50) is 39.8 nM against human CCR6 [1] and 200 nM on human CCR6 [2].

`O=S(=O)(c1ccc(-c2cc(F)c3nccn3c2)cc1)[C@H]1CC[C@H](Nc2ccc(S(F)(F)(F)(F)F)cc2)CC1` [Example 152, 4-(pentafluoro-λ^6-sulfanyl)-N-[trans-4-(4-{8-fluoroimidazo[1,2-a]pyridin-6-yl}benzenesulfonyl)cyclohexyl]aniline]: the figures for the IC50 on human CCR6 [1] and on human CCR6 [2] were 10 nM and 100 nM, respectively.

As for `O=C1NCCc2sc(-c3ccc(S(=O)(=O)[C@H]4CC[C@H](Nc5ccc(S(F)(F)(F)(F)F)cc5)CC4)cc3)cc21` [Example 153, 2-(4-{[trans-4-{[4-(pentafluoro-λ^6-sulfanyl)phenyl]amino}cyclohexyl]sulfonyl}phenyl)-4H,5H,6H,7H-thieno[3,2-c]pyridin-4-one], the 50% inhibitory concentration (IC50) against human CCR6 [1] is 15.8 nM; against human CCR6 [2], 158 nM.

Take `O=C1NCCCn2cc(-c3ccc(S(=O)(=O)[C@H]4CC[C@H](Nc5ccc(S(F)(F)(F)(F)F)cc5)CC4)cc3)cc21` [Example 155, 8-(4-{[trans-4-{[4-(pentafluoro-λ^6-sulfanyl)phenyl]amino}cyclohexyl]sulfonyl}phenyl)-1H,2H,3H,4H,5H-pyrrolo[1,2-a][1,4]diazepin-1-one]: the half-inhibitory concentration (IC50) at human CCR6 [1] is 31.6 nM; against human CCR6 [2], 158 nM.

As for `O=C1NCCn2cc(-c3ccc(S(=O)(=O)[C@H]4CC[C@H](Nc5ccc(S(F)(F)(F)(F)F)cc5)CC4)cc3)cc21` [Example 156, 7-(4-{[trans-4-{[4-(pentafluoro-λ^6-sulfanyl)phenyl]amino}cyclohexyl]sulfonyl}phenyl)-1H,2H,3H,4H-pyrrolo[1,2-a]pyrazin-1-one], the IC50 at human CCR6 [1] is 39.8 nM; on human CCR6 [2], 158 nM.

As to `NC(=O)c1cc(-c2ccc(S(=O)(=O)[C@H]3CC[C@H](Nc4ccc(S(F)(F)(F)(F)F)cc4)CC3)cc2)cn2ccnc12` [Example 157, 6-(4-{[trans-4-{[4-(pentafluoro-λ^6-sulfanyl)phenyl]amino}cyclohexyl]sulfonyl}phenyl)imidazo[1,2-a]pyridine-8-carboxamide], the 50% inhibitory concentration (IC50) against human CCR6 [1] was 2.51 nM; on human CCR6 [2] it was 79.4 nM.

On to `NC(=O)c1cc(-c2ccc(S(=O)(=O)[C@H]3CC[C@H](Nc4ccc(S(F)(F)(F)(F)F)cc4)CC3)cc2)co1` [Example 158, 4-(4-{[trans-4-{[4-(pentafluoro-λ^6-sulfanyl)phenyl]amino}cyclohexyl]sulfonyl}phenyl)furan-2-carboxamide], for which the IC50 at human CCR6 [1] was 10 nM; at human CCR6 [2], 100 nM.

On to `Nc1cc(-c2ccc(S(=O)(=O)[C@H]3CC[C@H](Nc4ccc(S(F)(F)(F)(F)F)cc4)CC3)cc2)cn2ccnc12` [Example 159, 6-(4-{[trans-4-{[4-(pentafluoro-λ^6-sulfanyl)phenyl]amino}cyclohexyl]sulfonyl}phenyl)imidazo[1,2-a]pyridin-8-amine], for which the values for the IC50 against human CCR6 [1] and against human CCR6 [2] were 12.6 nM and 63.1 nM, respectively.

`O=S(=O)(c1ccc(-c2ccc3nnc(C4CNC4)n3c2)cc1)N1CCC(Nc2ccc(S(F)(F)(F)(F)F)cc2)CC1` [Example 167, 1-{4-[3-(azetidin-3-yl)-[1,2,4]triazolo[4,3-a]pyridin-6-yl]benzenesulfonyl}-N-[4-(pentafluoro-λ^6-sulfanyl)phenyl]piperidin-4-amine]: the IC50 against human CCR6 [1] and against human CCR6 [2] was 251 nM each time.

For `N=S(=O)(c1ccc(-c2ccc3nnc(C(F)F)n3c2)cc1)[C@H]1CC[C@H](Nc2ccc(S(F)(F)(F)(F)F)cc2)CC1` (stereo partly drawn) [Example 169, {4-[3-(difluoromethyl)-[1,2,4]triazolo[4,3-a]pyridin-6-yl]phenyl}[trans-4-{[4-(pentafluoro-λ^6-sulfanyl)phenyl]amino}cyclohexyl](imino)-λ^6-sulfanone], the half-inhibitory concentration (IC50) against human CCR6 [1] was 79.4 nM; at human CCR6 [2] it was 316 nM.
